Assay results taken from patent publication US7105663B2, “Derivatives of pyrimido[6,1-a]isoquinolin-4-one” (Rhinopharma Limited, priority 1999, dated 2006).

Key:
[1] = system: guinea-pig isolated trachea; assay: Electrical-induced contraction of guinea-pig isolated trachea (superfused tracheal rings, electrical field stimulation); conditions: 10 μM
Experimental: Superfusion of guinea-pig tracheal rings was performed according to a previously described method (Coleman et al. 1996; Pulmonary Pharmacology, 9, 107–117). Briefly, guinea-pig tracheal preparations were cut into rings then opened by sectioning the ring opposite the smooth muscle and suspended between two platinum electrodes under 1 g tension. The tissues were superfased at a rate of 3.25 ml/min with Krebs-Henseleit solution at 37° C. containing the cyclooxygenase inhibitor, indomethacin (5 μM) and bubbled with 95% O2 and 5% CO2. Tracheal preparations were allowed to equilibrate for 40 min before commencement of electrical stimulation delivered as a 10 s train of square wave pulses at 3 Hz, 0.1 ms duration and 20V (approx. 400 mAmps) generated every 100 sec by means of physiological square wave-stimulator.
The compound of Example 1 was dissolved in DMSO containing Tween 80 (10%) and distilled water (0.01 M), which were then added to the organ bath to give a final concentration of 10 μM. The other compounds were prepared in DMSO and diluted in Krebs-Henseleit solution which yielded a final superfusion concentration of 0.05% DMSO, and superfused at a rate of 0.3 ml/min; contractile responses to electrical field stimulation was recorded on a Macintosh computer using MacLab software.

[2] = system: LPS induced TNF-α release from human monocytes; assay: LPS induced TNF-α release from human monocytes; format: cell-based; conditions: Monocyte
[3] = Intravenous administration to urethane anaesthetised guinea-pigs, mean arterial blood pressure; format: in vivo, guinea-pig; conditions: intravenous 1 to 100 μg/kg, evidence that the compound had come out of solution
Experimental: 2. […] The compound was dissolved in DMSO then diluted with saline (there was evidence that the compound had come out of solution).

[4] = system: human mononuclear cells stimulated by PHA; assay: Proliferation of human mononuclear cells stimulated by PHA ([3H]-thymidine); format: cell-based
Experimental: Normal healthy volunteers underwent phlebotomy and 25 ml of blood was collected. Mononuclear cells were separated and purified according to the method of Banner et al (Banner et al Br. J. Pharmacol. 116 3169–3174 (1995)). Human peripheral mononuclear cells (100,000 per well) were stimulated for 24 h with phytohaemagglutinin (PHA, 2 μ/ml) in the absence or presence of the compound of Example 1 (0.001–100 μM) at 37° C. in a 95% air, 5% CO2 atmosphere. Twenty four hours later, [3H]-thymidine (0.1 μCi) was added to each well and the cells were incubated for a further 24 h period. Cells were then harvested onto glass fibre filters using a cell harvester (ICN Flow, Buckinghamshire) and counted in a scintillation counter.

PDE3 (human platelet) = target: T1, PDE3 (human platelet) (Homo sapiens, UniProt Q14432); assay: Inhibition of phosphodiesterase (PDE) type 3 isoenzyme; format: biochemical
T1 construct: (human platelet); from tissue; host or cells: human platelets
T1 sequence (Q14432 whole entry): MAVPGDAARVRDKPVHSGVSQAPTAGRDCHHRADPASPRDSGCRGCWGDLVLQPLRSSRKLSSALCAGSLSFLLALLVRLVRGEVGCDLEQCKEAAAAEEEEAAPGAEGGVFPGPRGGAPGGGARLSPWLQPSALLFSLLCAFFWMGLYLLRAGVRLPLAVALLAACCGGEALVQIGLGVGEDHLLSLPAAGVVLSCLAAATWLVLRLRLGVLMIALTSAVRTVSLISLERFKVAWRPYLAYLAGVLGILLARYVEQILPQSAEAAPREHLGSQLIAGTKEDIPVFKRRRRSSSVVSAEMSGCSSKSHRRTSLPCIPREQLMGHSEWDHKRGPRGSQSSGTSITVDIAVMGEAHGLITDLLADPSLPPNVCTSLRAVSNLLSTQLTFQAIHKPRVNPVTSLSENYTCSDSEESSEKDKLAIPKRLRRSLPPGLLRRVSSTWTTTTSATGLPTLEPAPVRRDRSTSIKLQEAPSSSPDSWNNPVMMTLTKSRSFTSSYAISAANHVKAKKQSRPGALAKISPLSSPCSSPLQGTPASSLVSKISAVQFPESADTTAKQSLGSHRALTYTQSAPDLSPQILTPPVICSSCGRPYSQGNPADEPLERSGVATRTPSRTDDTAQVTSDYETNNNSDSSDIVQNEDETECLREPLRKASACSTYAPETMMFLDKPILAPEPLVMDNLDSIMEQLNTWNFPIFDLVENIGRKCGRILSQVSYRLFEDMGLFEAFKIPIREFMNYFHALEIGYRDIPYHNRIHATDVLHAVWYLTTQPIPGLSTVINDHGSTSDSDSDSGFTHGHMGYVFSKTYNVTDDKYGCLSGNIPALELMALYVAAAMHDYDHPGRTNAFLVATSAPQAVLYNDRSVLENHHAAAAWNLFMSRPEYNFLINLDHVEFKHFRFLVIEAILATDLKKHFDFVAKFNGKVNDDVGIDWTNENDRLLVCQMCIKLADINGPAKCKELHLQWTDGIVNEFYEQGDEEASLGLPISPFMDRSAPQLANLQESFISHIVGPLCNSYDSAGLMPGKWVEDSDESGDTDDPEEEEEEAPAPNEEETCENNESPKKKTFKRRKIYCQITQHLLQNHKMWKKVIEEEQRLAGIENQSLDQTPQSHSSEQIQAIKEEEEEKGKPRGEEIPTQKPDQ

[5] = system: recruitment of eosinophils to the lungs; assay: Antigen induced eosinophilia in the ovalbumin sensitised guinea-pig; format: in vivo
Experimental: 3. […] Further experiments were carried out to characterise the duration of action in this model.

PDE4 (human neutrophil) = assay: Inhibition of phosphodiesterase (PDE) type 4 isoenzyme; format: biochemical
[6] = system: histamine induced bronchospasm; assay: Histamine induced bronchospasm in guinea-pigs after dry powder exposure; format: in vivo, guinea-pig; conditions: dry powder 2.5 and 25% in lactose, over a 5.5 hour period
Experimental: 1. The compound of Example 1, 9,10-Dimethoxy-2-(2,4,6-trimethylphenylimino)-3-(N-carbamoyl-2-aminoethyl)-3,4,6,7-tetrahydro-2H-pyrimido[6,1-a]isoquinolin-4-one, was tested in a model of histamine induced bronchospasm. Conscious guinea-pigs were exposed to dry powder (micronised) compound. The drug was blended with lactose so that the final concentration was 0.25, 2.5 and 25%. At various times after exposure to drug the animals were anaesthetised and challenged with varying doses of histamine. Total airway resistance and mean arterial blood pressure were recorded.

COc1cc2c(cc1OC)-c1c/c(=N\c3c(C)cc(C)cc3C)n(CCN/C(N)=N/[N+](=O)[O-])c(=O)n1CC2 [Example 8, 9,10-Dimethoxy-3-[N-(N′-nitro)-2-guanidinoethyl]-2-(2,4,6-trimethylphenylimino)-3,4,6,7-tetrahydro-2H-pyrimido[6,1-a]isoquinolin-4-one]
effect on contractile responses (electrical-induced contraction of guinea-pig isolated trachea) [1]: inhibit the contractile responses with a long duration of action

COc1cc2c(cc1OC)-c1c/c(=N\c3ccccc3C)n(CCNC(N)=O)c(=O)n1CC2 [Example 10, 3-(N-Carbamoyl-2-aminoethyl)-9,10-dimethoxy-2-(2-methylphenylimino)-3,4,6,7-tetrahydro-2H-pyrimido[6,1-a]isoquinolin-4-one]
effect on contractile responses (electrical-induced contraction of guinea-pig isolated trachea) [1]: inhibit the contractile responses with a long duration of action

COc1cc2c(cc1OC)-c1c/c(=N\c3c(C)cc(C)cc3C)n(CCNC(=O)NC3CCCCC3)c(=O)n1CC2 [Example 9]
effect on contractile responses (electrical-induced contraction of guinea-pig isolated trachea) [1]: inhibit the contractile responses with a long duration of action

CN/C(=N\C#N)NCCn1c(=O)n2c(c/c1=N\c1c(C)cc(C)cc1C)-c1cc(OC)c(OC)cc1CC2 [Example 13, 3-[N-(N′-Cyano-N″-methyl)-2-guanidinoethyl]-9,10-dimethoxy-2-(2,4,6-trimethyl-phenylimino)-3,4,6,7-tetrahydro-2H-pyrimido[6,1-a]isoquinolin-4-one]
effect on contractile responses (electrical-induced contraction of guinea-pig isolated trachea) [1]: inhibit the contractile responses with a long duration of action

COc1cc2c(cc1OC)-c1c/c(=N\c3c(C(C)C)cccc3C(C)C)n(CCNC(N)=O)c(=O)n1CC2 [Example 11]
effect on contractile responses (electrical-induced contraction of guinea-pig isolated trachea) [1]: inhibit the contractile responses with a long duration of action

CN/C(=N\c1ccc(C2=NNC(=O)CC2C)cc1)NC#N (stereo not shown) [Siguazodan]
IC50 [2]: > 100 µM

COc1cc2c(cc1OC)-c1c/c(=N\c3c(C)cc(C)cc3C)n(CCNC(N)=O)c(=O)n1CC2 [Example 1, 9,10-Dimethoxy-2-(2,4,6-trimethylphenylimino)3-(N-carbamoyl-2-aminoethyl)-3,4,6,7-tetrahydro-2H-pyrimido[6,1-a]isoquinolin-4-one]
IC50 ([2]; n = 6): 0.0075 µM
mean arterial blood pressure [3]: dose dependant reduction
proliferation of human mononuclear cells stimulated by PHA ([4]; 0.001–100 μM): significantly inhibited
IC50 ([4]; Homo sapiens, 95% confidence limits in brackets, n=6, read-out: IC50 against proliferation of human mononuclear cells stimulated with PHA): 0.46 µM
IC50 (PDE3 (human platelet)): 0.00043 µM
recruitment of eosinophils to the lungs following antigen challenge ([5]; 10 mg/kg orally 1 hour prior to antigen challenge): significantly inhibited
recruitment of eosinophils to the lungs following antigen challenge ([5]; dry powder (25%) 1.5 hours prior to antigen challenge, measured 24 hours after challenge): significantly inhibited
recruitment of eosinophils to the lungs following antigen challenge ([5]; dry powder (25%) 5.5 hours before antigen challenge): failed to significantly inhibit
IC50 (PDE4 (human neutrophil)): 1.48 µM
effect on contractile responses (electrical-induced contraction of guinea-pig isolated trachea) [1]: inhibit the contractile responses with a long duration of action
protection against histamine induced bronchospasm ([6]; conscious guinea-pigs): significant protection
mean blood pressure ([6]; guinea-pigs): reduced mean blood pressure

COc1ccc([C@H](Cc2ccncc2)c2ccccc2)cc1OC1CCCC1 [CDP 840]
IC50 ([2]; n = 6): 0.092 µM
